The record followed here is patent US11731970B1, “Pyrrolo[2,3-b]quinoline compounds as antibacterial agents” (KING FAISAL UNIVERSITY, priority 2023, dated 2023).

Converted amounts (≈) assume the structure as drawn. Read-outs that look alike come from different tables or passages of the source.

In test [1] the test system is Enterococcus faecium ATCC 51559 (VRE resistant). Briefly: Antibacterial MIC, CLSI M07-A10 dilution. The format is cell-based.
Test [2] concerns Enterococcus faecium ATCC 35667. The test can be described thus: Antibacterial MIC, CLSI M07-A10 dilution. The format is cell-based. The note with it: ATCC35667.
Test [3] concerns Staphylococcus aureus ATCC 29213. Briefly: Antibacterial MIC, CLSI M07-A10 dilution. The class given is cell-based. The note with it: ATCC29213.
The subject of test [4] is Staphylococcus aureus ATCC BAA-1556 (MERSA resistant). The test can be described thus: Antibacterial MIC, CLSI M07-A10 dilution. The class given is cell-based. The note with it: ATCCBAA1556.
In test [5] the test system is Staphylococcus epidermidis. The test can be described thus: Antibacterial MIC, CLSI M07-A10 dilution. The format is cell-based.
Test [6] has as its system Escherichia coli MTCC 443. Briefly: Antibacterial MIC, CLSI M07-A10 dilution. The class given is cell-based. The note with it: MTCC443.
In test [7] the test system is Mycobacterium tuberculosis H37Rv strain. The test can be described thus: Anti-tubercular alamar blue microplate MIC. The format is cell-based. The settings on record: 168 h, M. tuberculosis H37Rv, seven days at 37° C., read-out: anti-mycobacterial activity (MIC). In general terms: Alamar Blue is a resazurin reagent that responds to reducing activity.
The subject of test [8] is Pseudomonas aeruginosa MTCC 741. The test can be described thus: Antibacterial MIC, CLSI M07-A10 dilution. The format is cell-based. The note with it: MTCC741.
Test [9] relates to Bacillus subtilis MTCC 441. The test can be described thus: Antibacterial MIC, CLSI M07-A10 dilution. The class given is cell-based. The note with it: MTCC441.
A further test addresses T1, DNA gyrase from E. coli (Escherichia coli, UniProt P0AES4+P0AES6).
T1 construct: purchased Inspiralis
Briefly: E. coli DNA gyrase inhibition (Inspiralis assay). The class given is biochemical. How it is done: Inhibitory potencies were investigated utilizing the Inspiralis assay on streptavidin-coated 96-well microtiter plates. First, the plates were rehydrated with buffer (20 mM Tris-HCl with pH 7.6, 0.01% w/v BSA, 0.05% v/v Tween 20, 137 mM NaCl) and the biotinylated oligonucleotide was then immobilized. After washing off the unbound oligonucleotide, the enzyme test was performed. The reaction volume of 30 μL in buffer (35 mM Tris×HCl with pH 7.5, 4 mM MgCl2, 24 mM KCl, 2 mM DTT, 1.8 mM spermidine, 1 mM ATP, 6.5% w/v glycerol, 0.1 mg/mL albumin) contained 1.5 U of DNA gyrase from E. coli, 0.75 μg of relaxed pNO1 plasmid, and 3 μL solution of the inhibitor in 10% DMSO and 0.008% Tween 20. Reaction solutions were incubated at 37° C. for 30 min. After that, the TF buffer (50 mM NaOAc with pH 5.0, 50 mM NaCl and 50 mM MgCl2) was added to terminate the enzymatic reaction. After additional incubation for 30 min at rt, during which biotinoligonucleotide-plasmid triplex was formed, the unbound plasmid was washed off using TF buffer and SybrGOLD in T10 buffer (10 mM Tris HCl with pH 8.0 and 1 mM EDTA) was added. The fluorescence was measured with a microplate reader (BioTek Synergy H4, excitation: 485 nm, emission: 535 nm). Initial screening was done at 100 or 10 μM concentration of inhibitors. […] GraphPad Prism software was used to calculate the IC50 values. […]

Test [10] concerns Klebsiella pneumonia MTCC 618. The test can be described thus: Antibacterial MIC, CLSI M07-A10 dilution. The class given is cell-based. The settings on record: Klebsiella pneumoniae, MTCC618.

T1 sequence (P0AES4 whole entry, one chain of several): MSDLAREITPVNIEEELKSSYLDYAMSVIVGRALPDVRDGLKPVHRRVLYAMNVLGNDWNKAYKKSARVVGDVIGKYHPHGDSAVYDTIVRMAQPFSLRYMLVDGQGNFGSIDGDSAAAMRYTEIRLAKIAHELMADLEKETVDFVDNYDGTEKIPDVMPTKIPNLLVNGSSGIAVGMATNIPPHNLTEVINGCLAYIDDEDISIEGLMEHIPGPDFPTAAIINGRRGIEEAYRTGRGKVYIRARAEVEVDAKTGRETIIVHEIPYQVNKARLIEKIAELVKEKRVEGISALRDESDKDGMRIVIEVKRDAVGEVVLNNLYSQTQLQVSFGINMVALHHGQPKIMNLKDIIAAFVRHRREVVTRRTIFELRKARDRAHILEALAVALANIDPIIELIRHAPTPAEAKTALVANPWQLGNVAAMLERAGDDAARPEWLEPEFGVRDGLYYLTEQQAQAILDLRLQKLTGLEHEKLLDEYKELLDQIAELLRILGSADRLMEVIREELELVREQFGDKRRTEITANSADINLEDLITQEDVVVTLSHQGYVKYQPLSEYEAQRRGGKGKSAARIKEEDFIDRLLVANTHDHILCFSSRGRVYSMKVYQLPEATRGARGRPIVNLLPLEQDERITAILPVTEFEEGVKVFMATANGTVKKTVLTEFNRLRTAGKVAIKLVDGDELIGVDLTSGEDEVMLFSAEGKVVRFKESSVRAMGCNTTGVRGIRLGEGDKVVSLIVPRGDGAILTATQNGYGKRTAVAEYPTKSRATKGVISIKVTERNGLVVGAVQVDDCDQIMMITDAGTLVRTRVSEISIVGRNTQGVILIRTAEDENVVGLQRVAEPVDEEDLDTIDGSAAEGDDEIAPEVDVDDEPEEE

The term MIC denotes the least concentration at which growth counts as inhibited. For orientation: IC50 means the concentration that gives 50% inhibition. `CCCCCN(C)Cc1cc(C(=O)O)ccc1-c1cc2cc3cc(F)cc(NC)c3nc2[nH]1` [Compound 6, 4-(6-fluoro-8-(methylamino)-1H-pyrrolo[2,3-b]quinolin-2-yl)-3-((methyl(pentyl)amino)methyl)benzoic acid]: the MIC was 1 µg/mL (≈ 2.23 µM) in test [1] (Enterococcus faecium ATCC 51559 (VRE resistant), read-out: MIC); 0.75 µg/mL (≈ 1.67 µM) in test [2] (Enterococcus faecium ATCC 35667, read-out: MIC); 0.75 µg/mL (≈ 1.67 µM) in test [3]; 0.75 µg/mL (≈ 1.67 µM) in [4]; 1 µg/mL (≈ 2.23 µM) in [5] (read-out: MIC); 4 µg/mL (≈ 8.92 µM) in test [6] (Escherichia coli MTCC 443, read-out: MIC). The minimum inhibitory concentration (MIC) turned out to be 4 µg/mL (≈ 8.92 µM) in [7]; 0.75 µg/mL (≈ 1.67 µM) in test [8] (Pseudomonas aeruginosa MTCC 741, read-out: MIC); 0.5 µg/mL (≈ 1.11 µM) in test [9] (Bacillus subtilis MTCC 441, read-out: MIC); 1 µg/mL (≈ 2.23 µM) in test [10] (Klebsiella pneumonia MTCC 618, read-out: MIC). Besides, on DNA gyrase from E. coli, the half-inhibitory concentration (IC50) amounted to 25 nM.

`CN[C@H](CC(C)C)C(=O)N[C@H]1C(=O)N[C@@H](CC(N)=O)C(=O)N[C@H]2C(=O)N[C@H]3C(=O)N[C@H](C(=O)N[C@H](C(=O)O)c4cc(O)cc(O)c4-c4cc3ccc4O)[C@H](O)c3ccc(c(Cl)c3)Oc3cc2cc(c3O[C@@H]2O[C@H](CO)[C@@H](O)[C@H](O)[C@H]2O[C@H]2C[C@](C)(N)[C@H](O)[C@H](C)O2)Oc2ccc(cc2Cl)[C@H]1O` [Vancomycin, reference compound]: the minimal inhibitory concentration (MIC) in [1] (Enterococcus faecium) was greater than 128 µg/mL; in [2] (Enterococcus faecium) it was 0.5 µg/mL (≈ 0.345 µM); in [5], 1 µg/mL (≈ 0.69 µM); in [6] (Escherichia coli), greater than 128 µg/mL; in test [8] (Pseudomonas aeruginosa), greater than 128 µg/mL; in test [9] (Bacillus subtilis), 0.5 µg/mL (≈ 0.345 µM). For the same compound, the MIC in [10] was greater than 128 µg/mL.
